These are literature values, as cited in patent publication US10441535B2, “Nutraceutical confectionary composition containing caffeine and L-theanine” (NeuroGum, LLC, priority 2015, dated 2019).

For this data set the following is noted: human, in vivo.

Consider N-Ethyl-L-glutamine [L-theanine], for which the elimination half-life is 1 to 2 h.
